From article PMC10975434 (Pharmaceutics, 2024)
Numbering of substitutions follows the chain as printed. Where “and” joins values, the source holds several entries; their conditions need not be identical. Equal entries are not always repeated. Where two headings read alike, the source gives them in different places.

Tests used:
[1] = target: T1, UGT2B7 (Homo sapiens, UniProt P16662, Y268H); assay: Inhibition screening of morphine glucuronidation in rUGT2B7-overexpressing HEK293 cell microsomes; settings: rUGT-overexpressing microsomes and HLM
T1 sequence (P16662 24-529 Y268H): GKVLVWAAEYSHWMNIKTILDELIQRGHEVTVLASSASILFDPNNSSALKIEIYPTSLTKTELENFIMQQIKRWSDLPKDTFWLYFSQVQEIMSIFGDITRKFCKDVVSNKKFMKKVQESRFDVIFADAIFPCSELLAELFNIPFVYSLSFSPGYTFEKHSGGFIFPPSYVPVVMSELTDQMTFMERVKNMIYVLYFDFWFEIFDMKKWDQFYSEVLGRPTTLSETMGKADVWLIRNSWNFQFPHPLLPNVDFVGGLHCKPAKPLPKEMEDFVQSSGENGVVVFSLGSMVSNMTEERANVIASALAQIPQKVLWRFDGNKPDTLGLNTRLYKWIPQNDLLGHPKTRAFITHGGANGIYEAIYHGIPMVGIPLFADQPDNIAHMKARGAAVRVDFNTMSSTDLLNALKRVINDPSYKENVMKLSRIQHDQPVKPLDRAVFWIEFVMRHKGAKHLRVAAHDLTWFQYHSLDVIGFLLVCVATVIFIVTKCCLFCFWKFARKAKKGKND

[2] = target: T1, UGT2B7; assay: in vitro
[3] = target: T2, UGT2B7 (Homo sapiens, UniProt P16662); assay: Inhibition screening of morphine glucuronidation in pooled human liver microsomes (HLM); settings: 100 µM cannabinoid
T2 sequence (P16662 24-529): T1 sequence (P16662 24-529 Y268H) with H245Y

[4] = target: T2, UGT2B7; assay: in vitro; settings: human liver microsomes, probe morphine […] (morphine-6-glucuronide formation)
[5] = cited from earlier work; for Cmax,u: after consumption; for ka (first-order absorption rate constant): ref Cox et al., 2019 [45]
[6] = Estimated unbound maximum hepatic inlet concentration used for the static model
Experimental: (8) [I]h=fu,p×Cmax+Fa ×Fg×Ka×Dose/Qh ×Rb
For the static mechanistic modeling, hepatic blood flow (Qh) and enterocyte blood flow (Qen) were set to 1500 mL/min and 300 mL/min, respectively, and the blood-to-plasma concentration ratio (RB) was set to 0.4 [55].
C௠௔௫ ,௛௘௣௔௧௜௖ ௜௡௟௘௧ ,௨ ൌ f௨,௣ ൈ ቀC௠௔௫ ൅ ிೌ ൈ ி೒ ൈ ௄ೌ ൈ஽௢௦௘ொ೓ ൈ ோ್ቁ, where fu,p (unbound fraction in plasma) wa s set

[7] = target: T2, UGT2B7; assay: IC50 determination and calculated Ki, morphine glucuronidation in HLM
[8] = target: T2, UGT2B7
[9] = HLM; cited from earlier work
[10] = target: T1, UGT2B7; assay: IC50 determination, morphine glucuronidation in rUGT2B7-overexpressing HEK293 cell microsomes
[11] = tested on: UGT2B7; design: method as in PMID 9715839; settings: coadministration of zidovudine (AZT) and methadone; cited from earlier work
[12] = microsomes of HEK293 cells overexpressing recombinant UGT2B7, probe morphine […] (morphine-3-glucuronide formation)
[13] = microsomes of HEK293 cells overexpressing recombinant UGT2B7, probe morphine […] (morphine-6-glucuronide formation)
[14] = read-out: IC50,u, Morphine-3-Glucuronide formation, corrected for non-specific binding with fu,inc (11-OH-THC fu,inc as surrogate for 11-COOH-THC and 7-OH-CBD)
[15] = read-out: IC50,u, Morphine-6-Glucuronide formation, corrected for non-specific binding with fu,inc (11-OH-THC fu,inc as surrogate for 11-COOH-THC and 7-OH-CBD)

## CCCCCc1cc(O)c2c(c1)OC(C)(C)c1ccc(C)cc1-2 [CBN, cannabinol]
[1]
  inhibition of UGT2B7-mediated morphine metabolism (overall, in words): no significant inhibitory activity
[2]; [12]
  inhibition at 100 µM: 10%
[2]; [13]
  inhibition at 100 µM: 33%
[3]
  inhibition of M3G and M6G formation in HLM (in words): did not exhibit appreciable inhibition

## C=C(C)[C@@H]1CCC(C)=C[C@H]1c1c(O)cc(CCCCC)cc1O [CBD, cannabidiol, reference compound]
[1]
  inhibition of UGT2B7-mediated morphine metabolism (overall, in words): strong inhibition
[2]; [12]
  inhibition at 100 µM: 99%
[2]; [13]
  inhibition at 100 µM: 98%
[4]
  IC50: 6.3 ± 2.6 µM
[3]
  inhibition of M3G and M6G formation in HLM (in words): significant inhibition
[5]
  Cmax,u: 0.13 µM
[5]; value set for the static model
  ka (first-order absorption rate constant): 0.02
[6]; human, hepatic inlet (unbound), inhaled or intranasal, 19 mg
  Cmax: 350 nM
[6]; human, hepatic inlet (unbound), po, 70 mg
  Cmax: 90 nM
[6]; human, hepatic inlet (unbound), po, 700 mg
  Cmax: 890 nM
[6]; human, hepatic inlet (unbound), po, 2000 mg
  Cmax: 2540 nM
[7]; human, human liver microsomes, probe morphine […] (morphine-3-glucuronide formation), Calculated Ki, Morphine-3-Glucuronide, Ki=IC50/2 assuming competitive inhibition
  Ki: 4.11 ± 2.24 µM
[7]; human, human liver microsomes, probe morphine […] (morphine-3-glucuronide formation), IC50,u, Morphine-3-Glucuronide formation, corrected for non-specific binding with fu,inc (11-OH-THC fu,inc as surrogate for 11-COOH-THC and 7-OH-CBD)
  IC50: 420 ± 230 nM
[7]; human, human liver microsomes, probe morphine […] (morphine-6-glucuronide formation), Calculated Ki, Morphine-6-Glucuronide, Ki=IC50/2 assuming competitive inhibition
  Ki: 3.16 ± 1.32 µM
[7]; human, human liver microsomes, probe morphine […] (morphine-6-glucuronide formation), Calculated Ki,u, Morphine-6-Glucuronide, Ki corrected with fu,inc
  Ki: 0.16 ± 0.07 µM
[7]; human, human liver microsomes, probe morphine […] (morphine-6-glucuronide formation), IC50,u, Morphine-6-Glucuronide formation, corrected for non-specific binding with fu,inc (11-OH-THC fu,inc as surrogate for 11-COOH-THC and 7-OH-CBD)
  IC50: 320 ± 130 nM

## CCCCCc1cc(O)c2c(c1)OC(C)(C)[C@@H]1CCC(C)=C[C@@H]21 [THC, Δ^9-tetrahydrocannabinol, reference compound]
[8]
  IC50: 24 µM and 15 µM
[1]
  inhibition of UGT2B7-mediated morphine metabolism (overall, in words): strong inhibition
[9]
  unbound fraction (fu,inc): 0.048
[10]; [14]
  IC50: 850 ± 340 nM
[10]; [15]
  IC50: 340 ± 70 nM
[3]
  inhibition of M3G and M6G formation in HLM (in words): significant inhibition
[5]
  Cmax,u: 0.02 µM
[5]; value set for the static model
  ka (first-order absorption rate constant): 0.02
[5]; value set for the static model, ref Schwilke et al., 2009 [55]
  BP (blood to plasma ratio): 0.4
[6]; read-out: Cmax,hepatic inlet,u, THC dose 20 mg, Oral, estimated from Cmax of Bansal et al., 2022 [56]
  Cmax: 30 nM
[6]; read-out: Cmax,hepatic inlet,u, THC dose 25 mg, Inhalation, estimated from Cmax of Bansal et al., 2022 [56]
  Cmax: 250 nM
[6]; read-out: Cmax,hepatic inlet,u, THC dose 70 mg, Inhalation, estimated from Cmax of Bansal et al., 2022 [56]
  Cmax: 690 nM
[6]; read-out: Cmax,hepatic inlet,u, THC dose 100 mg, Inhalation, estimated from Cmax of Bansal et al., 2022 [56]
  Cmax: 990 nM
[6]; read-out: Cmax,hepatic inlet,u, THC dose 130 mg, Oral, estimated from Cmax of Bansal et al., 2022 [56]
  Cmax: 200 nM
[6]; read-out: Cmax,hepatic inlet,u, THC dose 160 mg, Oral, estimated from Cmax of Bansal et al., 2022 [56]
  Cmax: 240 nM
[7]; read-out: Calculated Ki, Morphine-3-Glucuronide, Ki=IC50/2 assuming competitive inhibition
  Ki: 12.2 ± 2.77 µM
[7]; read-out: Calculated Ki, Morphine-6-Glucuronide, Ki=IC50/2 assuming competitive inhibition
  Ki: 7.69 ± 1.63 µM
[7]; read-out: Calculated Ki,u, Morphine-6-Glucuronide, Ki corrected with fu,inc
  Ki: 0.37 ± 0.08 µM
[7]; [14]
  IC50: 1200 ± 270 nM
[7]; [15]
  IC50: 740 ± 160 nM

## Cc1cn([C@H]2C[C@H](N=[N+]=[N-])[C@@H](CO)O2)c(=O)[nH]c1=O [zidovudine]
[11]
  increase in zidovudine exposure: 1.4 fold
